Target: T1, AXOR109 (Homo sapiens, UniProt Q8TDU6)
T1 construct: expressed in transfected cells; host or cells: melanophore cells, transfected by electroporation
T1 sequence (Q8TDU6 1-330): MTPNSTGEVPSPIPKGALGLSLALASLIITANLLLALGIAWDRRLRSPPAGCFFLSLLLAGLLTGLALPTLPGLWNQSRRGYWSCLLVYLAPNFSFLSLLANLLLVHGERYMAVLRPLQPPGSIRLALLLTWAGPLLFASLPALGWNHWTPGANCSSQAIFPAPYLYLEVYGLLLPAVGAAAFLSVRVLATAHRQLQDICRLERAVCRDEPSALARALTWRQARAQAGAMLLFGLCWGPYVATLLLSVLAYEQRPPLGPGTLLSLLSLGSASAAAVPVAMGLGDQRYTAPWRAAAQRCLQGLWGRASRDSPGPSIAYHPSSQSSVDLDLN
Test: Human AXOR109/Melanophore Assay
Format: cell-based
Settings: melanophore assay; for EC50: AXOR109 transfected melanophores; for Emax: 1 h
Method: AXOR109 is a Gs-coupled receptor and therefore increases intracellular cAMP leading to melanosome dispersion. Compounds of the present invention were characterized in a melanophore assay as described in Jayawickreme C K, et al., Current Protocols in Pharmacology (2005) 12.9.1-12.9.16. Briefly, melanophore cells are transfected by electroporation with AXOR109 expressing cDNA. Cells are then plated in 384 well clear bottom plates at 8E3 cells per well in 50 μl of conditioned fibroblast media (CFM). Compounds to be tested are serially diluted 3-fold in DMSO and further diluted 1:100 with melanophore assay buffer (MAB)+10 nM Melatonin to yield 11 point concentration response curves. Following 2 hour incubation with MAB+1% DMSO+10 nM Melatonin, initial transmittance is read on a TwisterII/Spectramax plate reader. Compounds are then added to the cells and incubated for 1 hour, and final transmittance is read as before. Results are compared to vehicle (MAB+1% DMSO+10 nM Melatonin) and to a positive control (MAB+1% DMSO+10 nM Melatonin+200 nM alpha-MSH). Data are calculated for each well as follows: 1-(Transmitance-final/Transmitance-initial). Each well result is then normalized to alpha-MSH, the system max control for Gs/Gq coupled receptors using the following equation: (ObjX−Control1)/(Control2−Control1)*100. The percent system max is used to generate the pEC50 using the equation: y=((Vmax*x̂n)/(K̂n+x̂n))+Y2. Acceptable Z-prime values should be >0.4. Compounds of the present invention have a pEC50≧5.0 in the above described assay.

[1] = normalized to alpha-MSH system max

Row | SMILES | EC50 [nM] | Emax [1] [%] | % Max [1]
1 | COc1ccc(S(=O)(=O)N2C[C@H](C)N(S(=O)(=O)c3ccc(OC)c(OC)c3)C[C@@H]2C)cc1F [Example 67, (2S,5S)-1-{[3,4-bis(methyloxy)phenyl]sulfonyl}-4-{[3-fluoro-4-(methyloxy)phenyl]sulfonyl}-2,5-dimethylpiperazine] | 126 to 1000 | – | –
2 | CCc1cc(S(=O)(=O)N2CCN(S(=O)(=O)c3ccc(OC)c(OC)c3)CC2)ccc1OC [Example 64, 1-{[3,4-bis(methyloxy)phenyl]sulfonyl}-4-{[3-ethyl-4-(methyloxy)phenyl]sulfonyl}piperazine] | 126 to 1000 | 76 to 100 | –
3 | COc1ccc(S(=O)(=O)N2CCN(S(=O)(=O)c3ccc(OC)c(OC)c3)C(C3CCCCC3)C2)cc1OC (centres unmarked) [Example 24, 1,4-bis{[3,4-bis(methyloxy)phenyl]sulfonyl}-2-cyclohexylpiperazine] | 1260 to 10000 | 51 to 75 | –
4 | COc1ccc(S(=O)(=O)N2CCCN(S(=O)(=O)c3ccc(OC)c(OC(F)(F)F)c3)CC2)cc1OC [Example 30, 1-{[3,4-bis(methyloxy)phenyl]sulfonyl}-4-({4-(methyloxy)-3-[(trifluoromethyl)oxy]phenyl}sulfonyl)hexahydro-1H-1,4-diazepine] | 1260 to 10000 | 76 to 100 | –
5 | COc1ccc(S(=O)(=O)N2CCCN(S(=O)(=O)c3ccc(OC)c(OC)c3)CC2)cc1F [Example 7, 1-{[3,4-bis(methyloxy)phenyl]sulfonyl}-4-{[3-fluoro-4-(methyloxy)phenyl]sulfonyl}hexahydro-1H-1,4-diazepine] | 1260 to 10000 | 0 to 50 | –
6 | COc1ccc(S(=O)(=O)N(C)CC(C)N(C)S(=O)(=O)c2ccc(OC)c(OC)c2)cc1OC (centres unmarked) [Example 44, N,N′-1,2-propanediylbis[N-methyl-3,4-bis(methyloxy)benzenesulfonamide]] | 126 to 1000 | 51 to 75 | –
7 | COc1ccc(S(=O)(=O)N2CCC(N(CC(C)C)S(=O)(=O)c3ccc(OC)c(OC)c3)C2)cc1OC (centres unmarked) [Example 57, N-(1-{[3,4-bis(methyloxy)phenyl]sulfonyl}-3-pyrrolidinyl)-3,4-bis(methyloxy)-N-(2-methylpropyl)benzenesulfonamide] | 1260 to 10000 | 51 to 75 | –
8 | COc1ccc(S(=O)(=O)N2CCN(S(=O)(=O)c3ccc(OC)c(OC)c3)CC2)cc1OC [Example 4, 1,4-bis{[3,4-bis(methyloxy)phenyl]sulfonyl}piperazine] | 1260 to 10000 | 51 to 75 | –
9 | COc1ccc(S(=O)(=O)N2C[C@H](C)N(S(=O)(=O)c3ccc(OC)c(OC)c3)[C@@H](C)C2)cc1OC [Example 21, (2S,6S)-1,4-bis{[3,4-bis(methyloxy)phenyl]sulfonyl}-2,6-dimethylpiperazine] | 126 to 1000 | 51 to 75 | –
10 | CCN([C@H]1CCN(S(=O)(=O)c2ccc(OC)c(OC)c2)C1)S(=O)(=O)c1ccc(OC)c(OC)c1 [Example 62, N-((3S)-1-{[3,4-bis(methyloxy)phenyl]sulfonyl}-3-pyrrolidinyl)-N-ethyl-3,4-bis(methyloxy)benzenesulfonamide] | 1260 to 10000 | 76 to 100 | –
11 | COc1ccc(S(=O)(=O)N2CCN(S(=O)(=O)c3ccc(OC)c(OC)c3)C(=O)C2=O)cc1OC [Example 27, 1,4-bis{[3,4-bis(methyloxy)phenyl]sulfonyl}-2,3-piperazinedione] | 1260 to 10000 | 51 to 75 | –
12 | COc1ccc(S(=O)(=O)N2CCN(S(=O)(=O)c3ccc(-c4cnco4)cc3)CC2)cc1OC [Example 2, 1-{[3,4-bis(methyloxy)phenyl]sulfonyl}-4-{[4-(1,3-oxazol-5-yl)phenyl]sulfonyl}piperazine] | 126 to 1000 | 51 to 75 | –
13 | CCC1CN(S(=O)(=O)c2ccc(OC)c(OC)c2)C(C)CN1S(=O)(=O)c1ccc(OC)c(OC)c1 (centres unmarked) [Example 46, 1,4-bis{[3,4-bis(methyloxy)phenyl]sulfonyl}-2-ethyl-5-methylpiperazine] | 1260 to 10000 | 51 to 75 | –
14 | COc1ccc(S(=O)(=O)N(C)CCN(C)S(=O)(=O)c2ccc3c(c2)n(C)c(=O)n3C)cc1OC [Example 65, N-methyl-N-{2-[{[3,4-bis(methyloxy)phenyl]sulfonyl}(methyl)amino]ethyl}-1,3-dimethyl-2-oxo-2,3-dihydro-1H-benzimidazole-5-sulfonamide] | 1260 to 10000 | 51 to 75 | –
15 | COc1ccc(S(=O)(=O)N2CCN(S(=O)(=O)c3ccc4c(c3)OCCO4)CC2)cc1OC [Example 78, 1-{[3,4-bis(methyloxy)phenyl]sulfonyl}-4-(2,3-dihydro-1,4-benzodioxin-6-ylsulfonyl)piperazine] | 1260 to 10000 | 51 to 75 | –
16 | COc1ccc(S(=O)(=O)N(C)C[C@H]2CCCN2S(=O)(=O)c2ccc(OC)c(OC)c2)cc1OC [Example 97, N-[((2R)-1-{[3,4-bis(methyloxy)phenyl]sulfonyl}-2-pyrrolidinyl)methyl]-N-methyl-3,4-bis(methyloxy)benzenesulfonamide] | < 126 | 76 to 100 | –
17 | CCCN(C1CCN(S(=O)(=O)c2ccc(OC)c(OC)c2)C1)S(=O)(=O)c1ccc(OC)c(OC)c1 (centres unmarked) [Example 56, N-(1-{[3,4-bis(methyloxy)phenyl]sulfonyl}-3-pyrrolidinyl)-3,4-bis(methyloxy)-N-propylbenzenesulfonamide] | 126 to 1000 | 0 to 50 | –
18 | COc1ccc(S(=O)(=O)N(C[C@H]2CCCN2S(=O)(=O)c2ccc(OC)c(OC)c2)C(C)C)cc1OC [Example 100, N-[((2R)-1-{[3,4-bis(methyloxy)phenyl]sulfonyl}-2-pyrrolidinyl)methyl]-N-(1-methylethyl)-3,4-bis(methyloxy)benzenesulfonamide] | 126 to 1000 | > 100 | –
19 | COc1ccc(S(=O)(=O)N2CCC(N(CC3CCC3)S(=O)(=O)c3ccc(OC)c(OC)c3)C2)cc1OC (centres unmarked) [Example 58, N-(1-{[3,4-bis(methyloxy)phenyl]sulfonyl}-3-pyrrolidinyl)-N-(cyclobutylmethyl)-3,4-bis(methyloxy)benzenesulfonamide] | 1260 to 10000 | 76 to 100 | –
20 | COc1ccc(S(=O)(=O)NC2CCCCN(S(=O)(=O)c3ccc(OC)c(OC)c3)C2)cc1OC (centres unmarked) [Example 25, N-(1-{[3,4-bis(methyloxy)phenyl]sulfonyl}hexahydro-1H-azepin-3-yl)-3,4-bis(methyloxy)benzenesulfonamide] | 1260 to 10000 | 0 to 50 | –
21 | COc1ccc(S(=O)(=O)N2C[C@@H](C)N(S(=O)(=O)c3ccc(OC)c(OC)c3)[C@@H](C)C2)cc1OC [Example 20, 1,4-bis{[3,4-bis(methyloxy)phenyl]sulfonyl}-2,6-cis-dimethylpiperazine] | 1260 to 10000 | – | ** (“**” = 51% to 75%)
22 | COc1ccc(S(=O)(=O)N2C[C@H](C)N(S(=O)(=O)c3cccc4cccnc34)C[C@@H]2C)cc1OC [Example 69, 8-[((2S,5S)-4-{[3,4-bis(methyloxy)phenyl]sulfonyl}-2,5-dimethyl-1-piperazinyl)sulfonyl]quinoline] | 1260 to 10000 | 76 to 100 | –
23 | CCN(C[C@H](C)N(CC)S(=O)(=O)c1ccc(OC)c(OC)c1)S(=O)(=O)c1ccc(OC)c(OC)c1 [Example 74, N,N′-(2S)-1,2-propanediylbis[N-ethyl-3,4-bis(methyloxy)benzenesulfonamide]] | 126 to 1000 | 76 to 100 | –
24 | CC=CCN(CCN(C)S(=O)(=O)c1ccc(OC)c(OC)c1)S(=O)(=O)c1ccc(OC)c(OC)c1 [Example 75, N-{2-[{[3,4-bis(methyloxy)phenyl]sulfonyl}(2-buten-1-yl)amino]ethyl}-N-methyl-3,4-bis(methyloxy)benzenesulfonamide] | 126 to 1000 | 76 to 100 | –
25 | COc1ccc(S(=O)(=O)N2CCCCC(N(C)S(=O)(=O)c3ccc(OC)c(OC)c3)C2)cc1OC (centres unmarked) [Example 92] | 1260 to 10000 | 51 to 75 | –
26 | COc1ccc(S(=O)(=O)N2CCCN(S(=O)(=O)c3ccc(OC)c(OC)c3)C(C)C2)cc1OC (centres unmarked) [Example 49, 1,4-bis{[3,4-bis(methyloxy)phenyl]sulfonyl}-2-methylhexahydro-1H-1,4-diazepine] | 1260 to 10000 | 51 to 75 | –
27 | COc1ccc(S(=O)(=O)N2C[C@H](C)N(S(=O)(=O)c3ccc4c(c3)OCCO4)C[C@@H]2C)cc1OC [Example 71, (2S,5S)-1-{[3,4-bis(methyloxy)phenyl]sulfonyl}-4-(2,3-dihydro-1,4-benzodioxin-6-ylsulfonyl)-2,5-dimethylpiperazine] | 126 to 1000 | 76 to 100 | –

Reference: patent US20090069302A1 (SMITHKLINE BEECHAM CORPORATION, priority 2006, published 2009)
